Results published in PMC3335078, “Length and Amino Acid Sequence of Peptides Substituted for the 5-HT3A Receptor M3M4 Loop May Affect Channel Expression and Desensitization” (PLoS ONE, 2012).

Tests used:
[1] = target: T1, 5-HT3A M3M4 loop AAPARAA construct (Mus musculus, UniProt P23979); assay: Two-electrode voltage clamp, oocytes expressing AAPARAA loop construct; type: cell-based; conditions: 10 µM 5-HT, Xenopus oocytes
T1 construct: expressed in transfected cells; host or cells: Xenopus laevis oocytes injected with mRNA
T1 sequence (P23979 with tags, fused parts or gaps): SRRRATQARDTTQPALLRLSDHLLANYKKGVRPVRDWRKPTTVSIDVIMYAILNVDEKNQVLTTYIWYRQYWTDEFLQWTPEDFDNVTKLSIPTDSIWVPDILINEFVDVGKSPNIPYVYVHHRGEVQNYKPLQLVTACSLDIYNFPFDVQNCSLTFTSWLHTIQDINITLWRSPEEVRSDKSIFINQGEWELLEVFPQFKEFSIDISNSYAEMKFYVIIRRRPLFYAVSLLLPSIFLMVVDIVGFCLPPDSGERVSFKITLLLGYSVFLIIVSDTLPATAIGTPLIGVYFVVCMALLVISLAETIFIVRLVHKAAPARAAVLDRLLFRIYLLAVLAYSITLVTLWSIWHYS
Text: (§1) The mouse 5-HT3A cDNA with an N-terminal V5 epitope tag was cloned into the pXOON vector as previously described, and is referred to in this paper as “wild-type” (WT). The starting construct for all of the M3M4 loop replacement constructs used in this work was the 5-HT3A-ΔM3M4 construct formed by splicing the cytoplasmic end of M3 (M3-LVHK/QDLQRP…) to the cytoplasmic end of M4 (…WLRVGY/VLDRLL-M4). The splice was made at the site of the “/” to yield the sequence M3-LVHK/VLDRLL-M4 [34]. This removed 115 residues predicted to form the M3M4 loop.
(§2) The construction of the 5-HT3A-glvM3M4 chimera with the 5-HT3A M3M4 loop replaced by the GLIC heptapeptide M3M4 loop (SQPARAA) was described previously. Point mutations, alanine and Gly-Ser-Ala insertions into the 5-HT3A-ΔM3M4 construct were generated with the Quikchange site directed mutagenesis procedure (Stratagene, La Jolla, CA). […]
(§3) Currents were recorded under two-electrode voltage clamp from oocytes 2–5 d post-injection as described previously. […]
(§4) Desensitization rates were determined by fitting a single exponential decay function to the current data with Prism 4 software (GraphPad Software). Significant differences compared with wild-type were determined by a one-way ANOVA (p<0.05) using Dunnett's multiple comparison post-hoc test (p<0.05). […]

5-HT3A-A5 = target: T2, 5-HT3A-A5 (Mus musculus, UniProt P23979); assay: Radioactive 5-HT binding to oocytes expressing 5-HT3A-A5; conditions: 150 nM [3H]5-HT + 10 µM 5-HT, 5 min, 45 s cold wash
T2 construct: expressed in transfected cells; host or cells: Xenopus laevis oocytes injected with mRNA
T2 sequence (P23979 with tags, fused parts or gaps isoform P23979-2 limits assumed): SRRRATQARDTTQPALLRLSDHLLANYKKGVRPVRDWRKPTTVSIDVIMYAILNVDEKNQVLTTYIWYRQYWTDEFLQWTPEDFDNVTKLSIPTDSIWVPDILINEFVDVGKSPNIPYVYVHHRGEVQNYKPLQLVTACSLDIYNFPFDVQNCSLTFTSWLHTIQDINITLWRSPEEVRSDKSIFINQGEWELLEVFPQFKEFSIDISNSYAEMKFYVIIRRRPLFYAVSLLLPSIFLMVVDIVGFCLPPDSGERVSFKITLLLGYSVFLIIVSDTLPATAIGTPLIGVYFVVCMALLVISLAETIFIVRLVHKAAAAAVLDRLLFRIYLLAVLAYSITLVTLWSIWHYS
Method: (§5) Assays were terminated by five washes with ice cold CFFR buffer, followed by solubilization of the oocytes individually with 200 µl 5% SDS. Total wash time was 45 s. […] All data points represent the average of at least fifteen individual oocytes derived from three separate oocyte isolations.
(§6) To determine the extent of non-specific binding, all binding experiments were performed in parallel with diethylpyrocarbonate-(DEPC)-treated-water injected oocytes or uninjected oocytes.

[2] = target: T3, 5-HT3A M3M4 loop GSAGSA mutant (Mus musculus, UniProt P23979); assay: Two-electrode voltage clamp, oocytes expressing GSAGSA M3M4 mutant; type: cell-based; conditions: 10 µM 5-HT, Xenopus oocytes
T3 construct: expressed in transfected cells; host or cells: Xenopus laevis oocytes injected with mRNA
T3 sequence (P23979 with tags, fused parts or gaps isoform P23979-2 limits assumed, change not shown): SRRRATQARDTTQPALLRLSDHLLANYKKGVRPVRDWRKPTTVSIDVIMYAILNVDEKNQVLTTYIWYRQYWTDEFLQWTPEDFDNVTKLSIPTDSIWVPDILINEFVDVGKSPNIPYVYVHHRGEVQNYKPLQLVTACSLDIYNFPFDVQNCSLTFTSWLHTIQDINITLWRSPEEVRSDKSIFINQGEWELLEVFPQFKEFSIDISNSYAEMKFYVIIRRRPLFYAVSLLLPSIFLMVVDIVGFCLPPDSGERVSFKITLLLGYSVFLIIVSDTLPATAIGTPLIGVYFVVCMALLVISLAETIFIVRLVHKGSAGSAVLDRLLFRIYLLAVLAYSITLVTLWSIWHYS
Text: as §1, §2, §3, §4

5-HT3A-A7 = target: T4, 5-HT3A-A7 (Mus musculus, UniProt P23979); assay: Radioactive 5-HT binding to oocytes expressing 5-HT3A-A7; conditions: 150 nM [3H]5-HT + 10 µM 5-HT, 5 min, 45 s cold wash
T4 construct: expressed in transfected cells; host or cells: Xenopus laevis oocytes injected with mRNA
Method: as §5, §6

[3] = target: T5, 5-HT3A-A7 (M3M4 loop replaced by seven alanines) (Mus musculus, UniProt P23979)
T5 sequence (P23979 with tags, fused parts or gaps isoform P23979-2 limits assumed): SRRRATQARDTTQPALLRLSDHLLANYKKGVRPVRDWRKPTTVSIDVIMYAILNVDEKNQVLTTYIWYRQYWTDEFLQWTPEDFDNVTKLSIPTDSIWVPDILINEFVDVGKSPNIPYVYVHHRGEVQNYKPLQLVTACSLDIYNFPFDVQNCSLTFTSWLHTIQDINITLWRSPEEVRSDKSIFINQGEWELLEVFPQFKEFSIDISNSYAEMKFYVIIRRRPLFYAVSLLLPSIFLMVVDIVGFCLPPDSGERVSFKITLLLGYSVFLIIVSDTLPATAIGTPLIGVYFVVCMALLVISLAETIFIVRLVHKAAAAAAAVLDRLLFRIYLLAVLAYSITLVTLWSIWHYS
Text: as §1
(§7) The construction of the 5-HT3A-glvM3M4 chimera with the 5-HT3A M3M4 loop replaced by the GLIC heptapeptide M3M4 loop (SQPARAA) was described previously. Point mutations, alanine and Gly-Ser-Ala insertions into the 5-HT3A-ΔM3M4 construct were generated with the Quikchange site directed mutagenesis procedure (Stratagene, La Jolla, CA). The entire coding region of all mutant constructs was verified by DNA sequencing (Albert Einstein College of Medicine DNA Sequencing Facility). The pXOON plasmid was linearized using NheI and capped mRNA prepared with T7 RNA polymerase (mMessage mMachine, Ambion, Austin, TX).
(§8) Use of Xenopus laevis in this study was carried out in strict accordance with the recommendations in the Guide for the Care and Use of Laboratory Animals of the National Institutes of Health. The protocol was approved by the Albert Einstein College of Medicine Animal Care and Use Committee (Protocol Number: 20081201). All surgery was performed under tricaine anesthesia, and all efforts were made to minimize suffering. Oocyctes were harvested from Xenopus (Nasco Science, Fort Atkinson, WI) anesthetized with 0.15% tricaine. Oocyctes were defolliculated by incubation in 2 mg ml^−1 Type 1A collagenase (Sigma-Aldrich, St. Louis, MO) in OR2 (85 mM NaCl, 2 mM KCl, 1 mM MgCl2, and 5 mM HEPES; pH adjusted to 7.5 with NaOH) for a 60 or 75 min. Oocytes were washed in OR2 and stored at 16°C in SOS medium: 100 mM NaCl, 2 mM KCl, 1 mM MgCl2, 1.8 mM CaCl2 5 mM HEPES, pH 7.5 with 100 IU ml^−1 penicillin, 100 µg ml^−1 streptomycin, and 250 ng ml^−1 amphotericin B (Invitrogen, Carlsbad, CA) and 5% horse serum (Sigma-Aldrich). 24 hrs following isolation, oocyctes were injected with 23 nl (2.3 ng) of mRNA and were kept in SOS media for 2–5 d at 16°C.
(§9) Currents were recorded under two-electrode voltage clamp from oocytes 2–5 d post-injection as described previously. […] The perfusion chamber volume was 200 µl. A 3 M KCl/agar bridge connected the ground electrode to the bath. The holding potential was maintained at −60 mV. […] Salts were purchased from Fisher Scientific (Hampton, NH) or Sigma-Aldrich.
(§10) Desensitization rates were determined by fitting a single exponential decay function to the current data with Prism 4 software (GraphPad Software). Significant differences compared with wild-type were determined by a one-way ANOVA (p<0.05) using Dunnett's multiple comparison post-hoc test (p<0.05). […]

[4] = target: T6, 5-HT3A-A6 (M3M4 loop replaced by six alanines) (Mus musculus, UniProt P23979)
T6 sequence (P23979 with tags, fused parts or gaps isoform P23979-2 limits assumed): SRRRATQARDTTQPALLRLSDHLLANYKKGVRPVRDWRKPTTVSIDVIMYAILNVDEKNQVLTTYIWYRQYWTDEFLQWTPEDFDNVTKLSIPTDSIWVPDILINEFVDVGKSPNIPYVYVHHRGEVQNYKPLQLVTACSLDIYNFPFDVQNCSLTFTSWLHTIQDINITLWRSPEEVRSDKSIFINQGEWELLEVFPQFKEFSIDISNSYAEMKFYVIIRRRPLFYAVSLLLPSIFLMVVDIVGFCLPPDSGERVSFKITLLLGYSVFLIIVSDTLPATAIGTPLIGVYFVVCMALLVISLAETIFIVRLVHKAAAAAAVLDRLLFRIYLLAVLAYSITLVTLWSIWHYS
Text: as §1, §7, §8, §9, §10

[5] = target: T7, 5-HT3A M3M4 loop GSAGSAGSA mutant (Mus musculus, UniProt P23979); assay: Two-electrode voltage clamp, oocytes expressing […] M3M4 mutant; type: cell-based; conditions: Xenopus oocytes
T7 construct: expressed in transfected cells; host or cells: Xenopus laevis oocytes injected with mRNA
T7 sequence (P23979 with tags, fused parts or gaps isoform P23979-2 limits assumed, change not shown): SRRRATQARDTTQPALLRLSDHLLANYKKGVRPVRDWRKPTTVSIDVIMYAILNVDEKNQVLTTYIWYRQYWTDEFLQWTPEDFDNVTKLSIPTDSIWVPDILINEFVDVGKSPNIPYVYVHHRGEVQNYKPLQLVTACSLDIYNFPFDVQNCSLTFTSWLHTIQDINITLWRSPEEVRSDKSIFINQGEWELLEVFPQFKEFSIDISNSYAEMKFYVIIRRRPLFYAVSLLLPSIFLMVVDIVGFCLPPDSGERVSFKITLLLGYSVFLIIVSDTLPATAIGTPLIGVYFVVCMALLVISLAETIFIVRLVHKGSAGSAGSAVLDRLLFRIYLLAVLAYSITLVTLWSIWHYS
Text: as §1, §2, §3, §4

`NCCc1c[nH]c2ccc(O)cc12` [5-HT, 5-hydroxytryptamine] was tested, and the “Channel function (5-HT induced current)” value [1] was “non-functional channels”, the “Radiolabeled 5-HT bound per oocyte” value (5-HT3A-A5) was 0.40±0.03 pmol per oocyte and the 5-HT induced current [2] was 730±45 nA. For the same compound, the “Radiolabeled 5-HT bound per oocyte” value (5-HT3A-A7) was 0.40±0.08 pmol per oocyte, the “nH (Hill coefficient)” value [3] was 3.7±0.8 and the “10–90% Activation rise time” value ([3]; 10 µM 5-HT) was 881 ± 110 ms. For the same compound, the “Desensitization time constant τ” value ([3]; prolonged 10 µM 5-HT) was 62 ± 4 s, the “10–90% Activation rise time” value ([4]; 10 µM 5-HT) was 1017 ± 23 ms and the “Imax (peak current)” value ([4]; 10 µM 5-HT, Xenopus oocytes, -60 mV) was 6400±1100 nA. The “Desensitization time constant τ” value ([4]; prolonged 10 µM 5-HT) was 77 ± 6 s and the 5-HT induced current [5] was “no detectable currents”.
